Article PMC5766608, “Target engagement imaging of PARP inhibitors in small-cell lung cancer” (Nature Communications, 2018)

Columns and labels:
TNKS2 = target: T1, TNKS2 (Homo sapiens, UniProt Q9H2K2); assay: PARP family enzyme activity inhibition screening (BPS Bioscience); type: biochemical; details: 100 nM inhibitor
T1 construct: purchased BPS Bioscience, San Diego, CA
T1 sequence (Q9H2K2 1-1166): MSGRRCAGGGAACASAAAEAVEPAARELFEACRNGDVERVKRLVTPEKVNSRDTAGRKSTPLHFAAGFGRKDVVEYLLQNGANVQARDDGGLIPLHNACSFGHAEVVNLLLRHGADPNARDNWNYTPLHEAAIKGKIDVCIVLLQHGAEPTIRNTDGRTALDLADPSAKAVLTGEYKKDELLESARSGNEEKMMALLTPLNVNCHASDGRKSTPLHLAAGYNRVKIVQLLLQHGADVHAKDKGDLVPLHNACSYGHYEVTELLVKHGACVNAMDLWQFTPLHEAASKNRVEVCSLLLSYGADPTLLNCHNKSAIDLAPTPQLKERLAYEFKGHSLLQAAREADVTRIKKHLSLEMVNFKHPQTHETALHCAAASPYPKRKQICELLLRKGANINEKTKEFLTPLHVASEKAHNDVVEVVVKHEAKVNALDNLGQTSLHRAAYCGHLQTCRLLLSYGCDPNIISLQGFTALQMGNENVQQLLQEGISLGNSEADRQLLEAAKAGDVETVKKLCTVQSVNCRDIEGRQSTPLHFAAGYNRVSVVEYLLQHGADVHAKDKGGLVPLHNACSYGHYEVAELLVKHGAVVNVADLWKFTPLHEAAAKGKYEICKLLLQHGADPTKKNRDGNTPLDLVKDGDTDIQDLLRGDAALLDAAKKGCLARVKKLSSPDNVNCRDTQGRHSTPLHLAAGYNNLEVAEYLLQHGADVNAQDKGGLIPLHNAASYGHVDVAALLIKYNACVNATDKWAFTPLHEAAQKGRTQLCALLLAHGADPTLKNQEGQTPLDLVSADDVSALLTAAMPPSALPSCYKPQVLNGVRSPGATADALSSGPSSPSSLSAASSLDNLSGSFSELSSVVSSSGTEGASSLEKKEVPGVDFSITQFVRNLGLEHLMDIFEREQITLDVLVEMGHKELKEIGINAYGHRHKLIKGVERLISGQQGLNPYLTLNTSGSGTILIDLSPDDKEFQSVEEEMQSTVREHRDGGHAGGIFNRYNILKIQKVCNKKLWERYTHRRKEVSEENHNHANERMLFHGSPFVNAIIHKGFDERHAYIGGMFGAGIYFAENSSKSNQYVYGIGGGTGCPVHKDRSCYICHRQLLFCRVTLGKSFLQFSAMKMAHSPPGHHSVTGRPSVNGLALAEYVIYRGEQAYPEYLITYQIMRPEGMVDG
Procedure: (§1) Fig. 1 Properties of PARP inhibitors. a Structures of 5 clinical therapeutic PARP inhibitors and the 2 PARP imaging agents. b Heatmap visualizing enzymatic activity screening of 10 small molecules against 12 PARP enzymes at 100 nM concentration (for additional concentrations, see Supplementary Fig. 1)
(§2) Assay was performed by BPS Bioscience, San Diego, CA. 100 µM DMSO solutions of each inhibitor were provided, and the assay was conducted after dilution to 100, 50, or 10 nM. […] Data was reported by BPS as % Enzyme Activity. Triplicates were combined to get a mean ± SD, and these were grouped and plotted onto a heatmap using Prism 7.
(§3) Supplementary Figure 1 | PARP enzyme family binding assays at additional concentrations.
(§4) histone substrate and biotin-labeled NAD+ at 100 nM (Fig. 1b), 50 nM (left) and 10 nM (right) for
(§5) each inhibitor and each enzyme.

TNKS1 = target: T2, TNKS1 (Homo sapiens, UniProt O95271); assay: as above; type: biochemical; details: 100 nM inhibitor
T2 construct: purchased BPS Bioscience, San Diego, CA
T2 sequence (O95271 1-1327): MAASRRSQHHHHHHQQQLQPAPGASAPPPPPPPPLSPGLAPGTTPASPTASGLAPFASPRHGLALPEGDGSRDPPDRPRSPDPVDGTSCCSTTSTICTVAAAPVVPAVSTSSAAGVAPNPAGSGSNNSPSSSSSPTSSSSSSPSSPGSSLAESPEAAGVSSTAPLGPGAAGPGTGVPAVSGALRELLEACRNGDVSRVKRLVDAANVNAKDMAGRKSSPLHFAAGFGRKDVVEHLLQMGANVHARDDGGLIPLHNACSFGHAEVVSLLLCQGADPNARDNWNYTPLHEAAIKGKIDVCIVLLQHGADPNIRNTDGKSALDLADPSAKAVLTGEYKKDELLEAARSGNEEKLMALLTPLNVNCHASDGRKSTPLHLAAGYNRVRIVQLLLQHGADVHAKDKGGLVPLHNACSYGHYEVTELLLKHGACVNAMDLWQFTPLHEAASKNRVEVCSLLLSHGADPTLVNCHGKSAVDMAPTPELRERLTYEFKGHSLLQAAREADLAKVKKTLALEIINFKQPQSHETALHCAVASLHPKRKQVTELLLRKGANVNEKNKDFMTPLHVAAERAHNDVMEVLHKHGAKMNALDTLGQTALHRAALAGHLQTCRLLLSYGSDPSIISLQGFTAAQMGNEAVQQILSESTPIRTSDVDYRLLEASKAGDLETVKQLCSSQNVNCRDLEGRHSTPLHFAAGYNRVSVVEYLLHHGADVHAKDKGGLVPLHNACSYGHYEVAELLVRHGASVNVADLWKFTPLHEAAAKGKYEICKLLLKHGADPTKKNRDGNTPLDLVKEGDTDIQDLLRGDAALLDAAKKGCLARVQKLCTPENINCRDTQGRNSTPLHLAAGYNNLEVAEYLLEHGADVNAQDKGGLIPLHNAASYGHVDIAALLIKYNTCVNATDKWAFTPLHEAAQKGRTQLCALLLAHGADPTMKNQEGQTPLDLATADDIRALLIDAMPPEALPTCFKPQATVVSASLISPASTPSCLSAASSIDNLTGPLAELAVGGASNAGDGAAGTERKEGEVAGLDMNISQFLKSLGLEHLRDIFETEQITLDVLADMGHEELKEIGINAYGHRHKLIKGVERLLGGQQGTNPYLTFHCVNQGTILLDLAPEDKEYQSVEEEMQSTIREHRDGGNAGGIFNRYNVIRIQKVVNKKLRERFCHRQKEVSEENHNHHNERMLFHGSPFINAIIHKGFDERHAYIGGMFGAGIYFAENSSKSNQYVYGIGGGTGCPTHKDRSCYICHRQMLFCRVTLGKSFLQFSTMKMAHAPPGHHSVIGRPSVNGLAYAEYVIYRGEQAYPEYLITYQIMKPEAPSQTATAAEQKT
Procedure: as §1, §2, §3, §4, §5

inhibition at 0.1 µM (TNKS2) | inhibition at 0.1 µM (TNKS1) | SMILES | Inhibition of TNKS2 enzyme activity (TNKS2) | Inhibition of TNKS1 enzyme activity (TNKS1)
≤ 5% | ≤ 5% | CC1=CC(C)=[N+]2C1=Cc1ccc(CCC(=O)N3CCN(C(=O)c4cc(Cc5n[nH]c(=O)c6ccccc56)ccc4F)CC3)n1[B-]2(F)F [PARPi-FL] |  | 
 |  | Cn1ncnc1[C@H]1c2n[nH]c(=O)c3cc(F)cc(c23)N[C@@H]1c1ccc(F)cc1 [Talazoparib, (8S,9R)-5-Fluoro-8-(4-fluorophenyl)-9-(1-methyl-1H-1,2,4-triazol-5-yl)-2,7,8,9-tetrahydro-3H-pyrido[4,3,2-de]phthalazin-3-one] | exhibited inhibition | exhibited inhibition
 |  | O=C(c1ccc(F)cc1)N1CCN(C(=O)c2cc(Cc3n[nH]c(=O)c4ccccc34)ccc2F)CC1 [^19F-PARPi] | ≤ 5% | ≤ 5%
